Measured values: US20260191783A1, “DRUG DELIVERY FORMULATIONS” (The Regents of the University of California, priority 2018, published 2026)

Experiments:
[1] = assay type: physicochemical
Protocol: Oxidized porous silicon microparticles were prepared using a similar method to those used for segesterone acetate melt casting described elsewhere (75% porosity, 800° C. oxidation). […] Once molten, the LNG-CHOL mixture was left to infiltrate the porous silica materials for 5 minutes before cooling to room temperature. The oxidized porous silicon material containing LNG-CHOL was then recovered and ground into microparticles using a mortar and pestle. The loaded oxidized porous silicon particles were then evaluated for their release kinetics in 1×PBS (pH 7.4) at 37° C. Approximately 2 mg of LNG-PSi were placed in a glass vial containing 3.5 mL of 1×PBS and placed in a 37° C. incubator on a moving platform to induce mild agitation of the solution. 3 mL of the PBS was removed every 24 hours and replaced with fresh solution. The extracted supernatant was then analyzed for LNG content by high performance liquid chromatography (HPLC).

[2] = In vitro dissolution / segesterone acetate release in 1x PBS; assay type: physicochemical; details: 1x PBS pH 7.4, 37° C., mild agitation, starting SEG 0.4 mg/mL
Protocol: Modulation of Segesterone Acetate Release Profile. Three main particle parameters were investigated as to their effect on the release of loaded SEG: particle oxidation temperature, drug loading, and particle porosity. Unless otherwise mentioned, the baseline particle formulation used was 55% porosity, oxidized at 800° C. and had segesterone acetate loading of 70% weight/weight. Drug release was modeled by in vitro dissolution in 1× phosphate buffered saline (pH 7.4) under mild agitation at 37° C. For all studies, starting segesterone acetate concentration was kept constant at 0.4 mg/mL based on the percent loading of the given formulation. […] Segesterone acetate concentrations were evaluated by HPLC with absorbance measurements at 254 nm.

androgen receptor = target: T1, androgen receptor (Homo sapiens, UniProt P10275); details: cited from earlier work
T1 sequence (P10275 1-920): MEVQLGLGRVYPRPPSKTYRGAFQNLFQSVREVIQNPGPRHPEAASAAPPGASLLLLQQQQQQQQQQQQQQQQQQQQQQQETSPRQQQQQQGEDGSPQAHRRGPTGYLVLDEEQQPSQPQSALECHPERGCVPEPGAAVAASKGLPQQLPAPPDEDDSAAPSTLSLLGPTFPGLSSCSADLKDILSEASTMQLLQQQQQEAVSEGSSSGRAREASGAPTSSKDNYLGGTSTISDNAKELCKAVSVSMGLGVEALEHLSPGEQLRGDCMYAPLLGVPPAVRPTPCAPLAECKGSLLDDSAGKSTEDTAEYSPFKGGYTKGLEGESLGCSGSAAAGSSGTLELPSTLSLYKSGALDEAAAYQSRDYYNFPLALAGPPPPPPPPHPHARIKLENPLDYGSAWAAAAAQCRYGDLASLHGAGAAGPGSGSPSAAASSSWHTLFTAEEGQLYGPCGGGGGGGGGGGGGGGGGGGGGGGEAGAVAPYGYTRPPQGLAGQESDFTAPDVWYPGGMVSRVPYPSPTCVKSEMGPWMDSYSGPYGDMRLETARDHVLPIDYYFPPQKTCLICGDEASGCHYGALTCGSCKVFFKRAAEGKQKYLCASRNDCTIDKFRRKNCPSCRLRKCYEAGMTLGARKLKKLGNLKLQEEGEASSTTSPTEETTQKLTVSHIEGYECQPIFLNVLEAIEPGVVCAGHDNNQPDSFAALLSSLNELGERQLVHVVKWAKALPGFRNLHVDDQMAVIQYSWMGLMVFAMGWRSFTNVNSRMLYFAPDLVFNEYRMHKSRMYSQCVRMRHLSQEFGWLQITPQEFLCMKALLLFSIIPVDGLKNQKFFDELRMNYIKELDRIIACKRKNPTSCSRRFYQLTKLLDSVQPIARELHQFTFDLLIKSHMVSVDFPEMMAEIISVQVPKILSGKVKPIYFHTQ

[3] = Serum segesterone acetate by HPLC-MS/MS after subcutaneous injection; details: rat, 50 mg/kg SEG
Protocol: In Vivo Performance. In vivo studies were performed in female adult Sprague-Dawley rats, weighing approximately 300 g each. […] Animals received a subcutaneous injection in the scruff of the neck containing 50 mg/kg SEG.
For longer term studies, five experimental groups (n=5 animals each) were studied: empty porous silica particles, pure non-micronized SEG, medium porosity 70 wt % segesterone acetate loaded particles and two groups of two different batches of high porosity 70 wt % segesterone acetate loaded particles. The five groups were monitored for 6 months with body weight measurements and tail-vein blood draws taken weekly.
Serum samples were processed and submitted to a third-party lab for segesterone acetate detection via HPLC-MS/MS.

estrogen receptor = target: T2, estrogen receptor (Homo sapiens, UniProt P03372); details: cited from earlier work
T2 sequence (P03372 1-595): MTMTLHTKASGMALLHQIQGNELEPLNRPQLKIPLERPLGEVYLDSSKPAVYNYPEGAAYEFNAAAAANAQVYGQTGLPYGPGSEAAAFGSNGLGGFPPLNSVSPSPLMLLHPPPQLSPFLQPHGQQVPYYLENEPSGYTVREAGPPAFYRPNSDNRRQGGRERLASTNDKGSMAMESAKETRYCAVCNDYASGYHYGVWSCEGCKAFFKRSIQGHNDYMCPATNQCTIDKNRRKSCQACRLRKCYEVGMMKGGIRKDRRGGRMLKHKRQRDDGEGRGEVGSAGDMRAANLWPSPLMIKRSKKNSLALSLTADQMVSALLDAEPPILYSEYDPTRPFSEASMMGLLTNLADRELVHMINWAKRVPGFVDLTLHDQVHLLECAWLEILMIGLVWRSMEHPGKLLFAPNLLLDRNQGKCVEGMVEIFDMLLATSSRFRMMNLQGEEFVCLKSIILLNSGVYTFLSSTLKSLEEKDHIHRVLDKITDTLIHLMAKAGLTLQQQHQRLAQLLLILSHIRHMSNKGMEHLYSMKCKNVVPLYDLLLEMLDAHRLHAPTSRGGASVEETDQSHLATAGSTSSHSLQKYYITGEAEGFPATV

C#C[C@]1(O)CC[C@H]2[C@@H]3CCC4=CC(=O)CC[C@@H]4[C@H]3CC[C@@]21CC [Levonorgestrel]
chemical alteration or degradation by the melt casting process [1]: not chemically altered or degraded | temperature at which the drug began to lose mass (oxygen atmosphere, heating rate 10° C.): approximately 233 °C

C=C1C[C@H]2[C@@H]3CCC4=CC(=O)CC[C@@H]4[C@H]3CC[C@]2(C)[C@@]1(OC(C)=O)C(C)=O [segesterone acetate]
duration of segesterone acetate release / time to full clearance from the test chamber ([2]; listed as crystalline segesterone acetate controls): 40 days | duration of segesterone acetate release / time to full clearance from the test chamber ([2]; listed as pure segesterone acetate): 35 to 40 days | binding to the androgen receptor (androgen receptor): does not significantly bind | segesterone acetate detection in serum at terminal 6-month timepoint [3]: still detected | binding to the estrogen receptor (estrogen receptor): does not significantly bind

C#C[C@]1(OC(=O)CCC)CC[C@H]2[C@@H]3CCC4=CC(=O)CC[C@@H]4[C@H]3CC[C@@]21CC [Levonorgestrel Butanoate]
Tdegradeable (STA under nitrogen flow): 230 °C | Window [Tdegradeable − Tmelt] (difference between melting and degradation temperatures, STA under nitrogen flow): 26 °C
